Data as given in PubChem BioAssay (NCI).
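The compound was tested at five concentrations on cells cultured in 96-well plates, with a 48-hour exposure period. At the TGI there is no net growth.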

test system: IGROV1 ovarian; test: NCI tumour cell line growth inhibition, 48 h

Structure (SMILES) | TGI [µM]
Nc1ccc(Sc2nnc(N)s2)cc1 | > 100
O=c1c(Nc2ccccc2)cn(CCOc2ccccc2)c(=O)n1CCOc1ccccc1 | > 100
CCn1cc(C(=O)O)c(=O)c2ccc(C)nc21 | > 100
COc1cc2c3c(c1Oc1nnnn1-c1ccccc1)-c1c(ccc4c1OCO4)C[C@H]3N(C)CC2 | > 100
NC(C/C=C/P(=O)(O)O)C(=O)O (configuration not stated) | > 100

test system: SK-MEL-28 melanoma; test: NCI tumour cell line growth inhibition, 48 h

Structure (SMILES) | TGI [µM]
Nc1ccc(Sc2nnc(N)s2)cc1 | > 100
O=c1c(Nc2ccccc2)cn(CCOc2ccccc2)c(=O)n1CCOc1ccccc1 | > 100
CCn1cc(C(=O)O)c(=O)c2ccc(C)nc21 | > 100
COc1cc2c3c(c1Oc1nnnn1-c1ccccc1)-c1c(ccc4c1OCO4)C[C@H]3N(C)CC2 | 37.1
NC(C/C=C/P(=O)(O)O)C(=O)O (configuration not stated) | > 100

test system: UACC-257 melanoma; test: NCI tumour cell line growth inhibition, 48 h

Structure (SMILES) | TGI [µM]
Nc1ccc(Sc2nnc(N)s2)cc1 | > 100
O=c1c(Nc2ccccc2)cn(CCOc2ccccc2)c(=O)n1CCOc1ccccc1 | > 100
CCn1cc(C(=O)O)c(=O)c2ccc(C)nc21 | > 100
COc1cc2c3c(c1Oc1nnnn1-c1ccccc1)-c1c(ccc4c1OCO4)C[C@H]3N(C)CC2 | 40
NC(C/C=C/P(=O)(O)O)C(=O)O (configuration not stated) | > 100

test system: OVCAR-3 ovarian; test: NCI tumour cell line growth inhibition, 48 h

Structure (SMILES) | TGI [µM]
O=c1c(Nc2ccccc2)cn(CCOc2ccccc2)c(=O)n1CCOc1ccccc1 | > 100
CCn1cc(C(=O)O)c(=O)c2ccc(C)nc21 | > 100
COc1cc2c3c(c1Oc1nnnn1-c1ccccc1)-c1c(ccc4c1OCO4)C[C@H]3N(C)CC2 | > 100
NC(C/C=C/P(=O)(O)O)C(=O)O (configuration not stated) | > 100

test system: HS 578T breast; test: NCI tumour cell line growth inhibition, 48 h

Structure (SMILES) | TGI [µM]
Nc1ccc(Sc2nnc(N)s2)cc1 | > 100
O=c1c(Nc2ccccc2)cn(CCOc2ccccc2)c(=O)n1CCOc1ccccc1 | 76.8
CCn1cc(C(=O)O)c(=O)c2ccc(C)nc21 | > 100
COc1cc2c3c(c1Oc1nnnn1-c1ccccc1)-c1c(ccc4c1OCO4)C[C@H]3N(C)CC2 | > 100
NC(C/C=C/P(=O)(O)O)C(=O)O (configuration not stated) | > 100

test system: HOP-62 NSCLC; test: NCI tumour cell line growth inhibition, 48 h

Structure (SMILES) | TGI [µM]
Nc1ccc(Sc2nnc(N)s2)cc1 | > 100
O=c1c(Nc2ccccc2)cn(CCOc2ccccc2)c(=O)n1CCOc1ccccc1 | 41.3
CCn1cc(C(=O)O)c(=O)c2ccc(C)nc21 | > 100
COc1cc2c3c(c1Oc1nnnn1-c1ccccc1)-c1c(ccc4c1OCO4)C[C@H]3N(C)CC2 | > 100

test system: SF-268 CNS; test: NCI tumour cell line growth inhibition, 48 h

Structure (SMILES) | TGI [µM]
Nc1ccc(Sc2nnc(N)s2)cc1 | > 100
O=c1c(Nc2ccccc2)cn(CCOc2ccccc2)c(=O)n1CCOc1ccccc1 | 67.6
CCn1cc(C(=O)O)c(=O)c2ccc(C)nc21 | > 100
COc1cc2c3c(c1Oc1nnnn1-c1ccccc1)-c1c(ccc4c1OCO4)C[C@H]3N(C)CC2 | > 100
NC(C/C=C/P(=O)(O)O)C(=O)O (configuration not stated) | > 100

test system: SK-OV-3 ovarian; test: NCI tumour cell line growth inhibition, 48 h

Structure (SMILES) | TGI [µM]
Nc1ccc(Sc2nnc(N)s2)cc1 | > 100
COc1cc2c3c(c1Oc1nnnn1-c1ccccc1)-c1c(ccc4c1OCO4)C[C@H]3N(C)CC2 | > 100
NC(C/C=C/P(=O)(O)O)C(=O)O (configuration not stated) | > 100

test system: RXF 393 renal; test: NCI tumour cell line growth inhibition, 48 h

Structure (SMILES) | TGI [µM]
O=c1c(Nc2ccccc2)cn(CCOc2ccccc2)c(=O)n1CCOc1ccccc1 | > 100
NC(C/C=C/P(=O)(O)O)C(=O)O (configuration not stated) | > 100

test system: T-47D breast; test: NCI tumour cell line growth inhibition, 48 h

Structure (SMILES) | TGI [µM]
Nc1ccc(Sc2nnc(N)s2)cc1 | > 100
CCn1cc(C(=O)O)c(=O)c2ccc(C)nc21 | > 100
COc1cc2c3c(c1Oc1nnnn1-c1ccccc1)-c1c(ccc4c1OCO4)C[C@H]3N(C)CC2 | > 100
NC(C/C=C/P(=O)(O)O)C(=O)O (configuration not stated) | > 100

test system: 786-0 renal; test: NCI tumour cell line growth inhibition, 48 h

Structure (SMILES) | TGI [µM]
Nc1ccc(Sc2nnc(N)s2)cc1 | > 100
O=c1c(Nc2ccccc2)cn(CCOc2ccccc2)c(=O)n1CCOc1ccccc1 | > 100
CCn1cc(C(=O)O)c(=O)c2ccc(C)nc21 | > 100
COc1cc2c3c(c1Oc1nnnn1-c1ccccc1)-c1c(ccc4c1OCO4)C[C@H]3N(C)CC2 | 39.7

test system: MDA-MB-435; test: NCI tumour cell line growth inhibition, 48 h

Structure (SMILES) | TGI [µM]
Nc1ccc(Sc2nnc(N)s2)cc1 | > 100
O=c1c(Nc2ccccc2)cn(CCOc2ccccc2)c(=O)n1CCOc1ccccc1 | > 100
CCn1cc(C(=O)O)c(=O)c2ccc(C)nc21 | > 100
COc1cc2c3c(c1Oc1nnnn1-c1ccccc1)-c1c(ccc4c1OCO4)C[C@H]3N(C)CC2 | 51.3
NC(C/C=C/P(=O)(O)O)C(=O)O (configuration not stated) | > 100

test system: M14 melanoma; test: NCI tumour cell line growth inhibition, 48 h

Structure (SMILES) | TGI [µM]
Nc1ccc(Sc2nnc(N)s2)cc1 | > 100
O=c1c(Nc2ccccc2)cn(CCOc2ccccc2)c(=O)n1CCOc1ccccc1 | > 100
CCn1cc(C(=O)O)c(=O)c2ccc(C)nc21 | > 100
COc1cc2c3c(c1Oc1nnnn1-c1ccccc1)-c1c(ccc4c1OCO4)C[C@H]3N(C)CC2 | 37.5
NC(C/C=C/P(=O)(O)O)C(=O)O (configuration not stated) | > 100

test system: UO-31 renal; test: NCI tumour cell line growth inhibition, 48 h

Structure (SMILES) | TGI [µM]
Nc1ccc(Sc2nnc(N)s2)cc1 | > 100
O=c1c(Nc2ccccc2)cn(CCOc2ccccc2)c(=O)n1CCOc1ccccc1 | > 100
CCn1cc(C(=O)O)c(=O)c2ccc(C)nc21 | > 100
COc1cc2c3c(c1Oc1nnnn1-c1ccccc1)-c1c(ccc4c1OCO4)C[C@H]3N(C)CC2 | > 100
NC(C/C=C/P(=O)(O)O)C(=O)O (configuration not stated) | > 100

test system: U251 CNS; test: NCI tumour cell line growth inhibition, 48 h

Structure (SMILES) | TGI [µM]
Nc1ccc(Sc2nnc(N)s2)cc1 | > 100
O=c1c(Nc2ccccc2)cn(CCOc2ccccc2)c(=O)n1CCOc1ccccc1 | > 100
CCn1cc(C(=O)O)c(=O)c2ccc(C)nc21 | > 100
COc1cc2c3c(c1Oc1nnnn1-c1ccccc1)-c1c(ccc4c1OCO4)C[C@H]3N(C)CC2 | > 100
NC(C/C=C/P(=O)(O)O)C(=O)O (configuration not stated) | > 100

test system: SN12C renal; test: NCI tumour cell line growth inhibition, 48 h

Structure (SMILES) | TGI [µM]
Nc1ccc(Sc2nnc(N)s2)cc1 | > 100
O=c1c(Nc2ccccc2)cn(CCOc2ccccc2)c(=O)n1CCOc1ccccc1 | > 100
CCn1cc(C(=O)O)c(=O)c2ccc(C)nc21 | > 100
COc1cc2c3c(c1Oc1nnnn1-c1ccccc1)-c1c(ccc4c1OCO4)C[C@H]3N(C)CC2 | > 100
NC(C/C=C/P(=O)(O)O)C(=O)O (configuration not stated) | > 100

test system: SR leukemia; test: NCI tumour cell line growth inhibition, 48 h

Structure (SMILES) | TGI [µM]
Nc1ccc(Sc2nnc(N)s2)cc1 | > 100
O=c1c(Nc2ccccc2)cn(CCOc2ccccc2)c(=O)n1CCOc1ccccc1 | > 100
CCn1cc(C(=O)O)c(=O)c2ccc(C)nc21 | > 100
COc1cc2c3c(c1Oc1nnnn1-c1ccccc1)-c1c(ccc4c1OCO4)C[C@H]3N(C)CC2 | > 100
NC(C/C=C/P(=O)(O)O)C(=O)O (configuration not stated) | > 100

test system: RPMI-8226 leukemia; test: NCI tumour cell line growth inhibition, 48 h

Structure (SMILES) | TGI [µM]
Nc1ccc(Sc2nnc(N)s2)cc1 | > 100
O=c1c(Nc2ccccc2)cn(CCOc2ccccc2)c(=O)n1CCOc1ccccc1 | > 100
CCn1cc(C(=O)O)c(=O)c2ccc(C)nc21 | > 100
COc1cc2c3c(c1Oc1nnnn1-c1ccccc1)-c1c(ccc4c1OCO4)C[C@H]3N(C)CC2 | > 100

test system: MDA-N; test: NCI tumour cell line growth inhibition, 48 h

Structure (SMILES) | TGI [µM]
Nc1ccc(Sc2nnc(N)s2)cc1 | > 100
O=c1c(Nc2ccccc2)cn(CCOc2ccccc2)c(=O)n1CCOc1ccccc1 | > 100
CCn1cc(C(=O)O)c(=O)c2ccc(C)nc21 | > 100
COc1cc2c3c(c1Oc1nnnn1-c1ccccc1)-c1c(ccc4c1OCO4)C[C@H]3N(C)CC2 | 55.1
NC(C/C=C/P(=O)(O)O)C(=O)O (configuration not stated) | > 100

test system: OVCAR-4 ovarian; test: NCI tumour cell line growth inhibition, 48 h

Structure (SMILES) | TGI [µM]
Nc1ccc(Sc2nnc(N)s2)cc1 | > 100
O=c1c(Nc2ccccc2)cn(CCOc2ccccc2)c(=O)n1CCOc1ccccc1 | 54.4
CCn1cc(C(=O)O)c(=O)c2ccc(C)nc21 | > 100
NC(C/C=C/P(=O)(O)O)C(=O)O (configuration not stated) | > 100

test system: DU-145 prostate; test: NCI tumour cell line growth inhibition, 48 h

Structure (SMILES) | TGI [µM]
O=c1c(Nc2ccccc2)cn(CCOc2ccccc2)c(=O)n1CCOc1ccccc1 | > 100
CCn1cc(C(=O)O)c(=O)c2ccc(C)nc21 | > 100
COc1cc2c3c(c1Oc1nnnn1-c1ccccc1)-c1c(ccc4c1OCO4)C[C@H]3N(C)CC2 | > 100
NC(C/C=C/P(=O)(O)O)C(=O)O (configuration not stated) | > 100

test system: KM12 colon; test: NCI tumour cell line growth inhibition, 48 h

Structure (SMILES) | TGI [µM]
Nc1ccc(Sc2nnc(N)s2)cc1 | > 100
O=c1c(Nc2ccccc2)cn(CCOc2ccccc2)c(=O)n1CCOc1ccccc1 | > 100
CCn1cc(C(=O)O)c(=O)c2ccc(C)nc21 | > 100
COc1cc2c3c(c1Oc1nnnn1-c1ccccc1)-c1c(ccc4c1OCO4)C[C@H]3N(C)CC2 | > 100
NC(C/C=C/P(=O)(O)O)C(=O)O (configuration not stated) | > 100

test system: HOP-92 NSCLC; test: NCI tumour cell line growth inhibition, 48 h

Structure (SMILES) | TGI [µM]
O=c1c(Nc2ccccc2)cn(CCOc2ccccc2)c(=O)n1CCOc1ccccc1 | 83.4
CCn1cc(C(=O)O)c(=O)c2ccc(C)nc21 | > 100
COc1cc2c3c(c1Oc1nnnn1-c1ccccc1)-c1c(ccc4c1OCO4)C[C@H]3N(C)CC2 | 78.6
NC(C/C=C/P(=O)(O)O)C(=O)O (configuration not stated) | > 100

test system: NCI-H460 lung; test: NCI tumour cell line growth inhibition, 48 h

Structure (SMILES) | TGI [µM]
Nc1ccc(Sc2nnc(N)s2)cc1 | > 100
O=c1c(Nc2ccccc2)cn(CCOc2ccccc2)c(=O)n1CCOc1ccccc1 | > 100
CCn1cc(C(=O)O)c(=O)c2ccc(C)nc21 | > 100
COc1cc2c3c(c1Oc1nnnn1-c1ccccc1)-c1c(ccc4c1OCO4)C[C@H]3N(C)CC2 | > 100
NC(C/C=C/P(=O)(O)O)C(=O)O (configuration not stated) | > 100

test system: UACC-62 melanoma; test: NCI tumour cell line growth inhibition, 48 h

Structure (SMILES) | TGI [µM]
O=c1c(Nc2ccccc2)cn(CCOc2ccccc2)c(=O)n1CCOc1ccccc1 | > 100
COc1cc2c3c(c1Oc1nnnn1-c1ccccc1)-c1c(ccc4c1OCO4)C[C@H]3N(C)CC2 | 29
NC(C/C=C/P(=O)(O)O)C(=O)O (configuration not stated) | > 100

test system: CAKI-1 renal; test: NCI tumour cell line growth inhibition, 48 h

Structure (SMILES) | TGI [µM]
O=c1c(Nc2ccccc2)cn(CCOc2ccccc2)c(=O)n1CCOc1ccccc1 | > 100
CCn1cc(C(=O)O)c(=O)c2ccc(C)nc21 | > 100
NC(C/C=C/P(=O)(O)O)C(=O)O (configuration not stated) | 32.8

test system: EKVX NSCLC; test: NCI tumour cell line growth inhibition, 48 h

Structure (SMILES) | TGI [µM]
Nc1ccc(Sc2nnc(N)s2)cc1 | > 100
O=c1c(Nc2ccccc2)cn(CCOc2ccccc2)c(=O)n1CCOc1ccccc1 | > 100
CCn1cc(C(=O)O)c(=O)c2ccc(C)nc21 | > 100
COc1cc2c3c(c1Oc1nnnn1-c1ccccc1)-c1c(ccc4c1OCO4)C[C@H]3N(C)CC2 | > 100
NC(C/C=C/P(=O)(O)O)C(=O)O (configuration not stated) | > 100

test system: NCI-H23 lung; test: NCI tumour cell line growth inhibition, 48 h

Structure (SMILES) | TGI [µM]
O=c1c(Nc2ccccc2)cn(CCOc2ccccc2)c(=O)n1CCOc1ccccc1 | > 100
CCn1cc(C(=O)O)c(=O)c2ccc(C)nc21 | > 100
COc1cc2c3c(c1Oc1nnnn1-c1ccccc1)-c1c(ccc4c1OCO4)C[C@H]3N(C)CC2 | > 100
NC(C/C=C/P(=O)(O)O)C(=O)O (configuration not stated) | > 100

test system: HL-60(TB) leukemia; test: NCI tumour cell line growth inhibition, 48 h

Structure (SMILES) | TGI [µM]
Nc1ccc(Sc2nnc(N)s2)cc1 | > 100
O=c1c(Nc2ccccc2)cn(CCOc2ccccc2)c(=O)n1CCOc1ccccc1 | > 100
CCn1cc(C(=O)O)c(=O)c2ccc(C)nc21 | > 100
COc1cc2c3c(c1Oc1nnnn1-c1ccccc1)-c1c(ccc4c1OCO4)C[C@H]3N(C)CC2 | > 100
NC(C/C=C/P(=O)(O)O)C(=O)O (configuration not stated) | > 100
